Target: T1, recombinant human mGluR2 (Homo sapiens, UniProt Q14416)
T1 construct: expressed in transfected cells
Experiment: FLIPR Ca2+ mobilization assay, potentiation of glutamate response
Assay type: cell-based
Settings: potentiation after EC20 glutamate (900 nM); CHO dhfr- cells expressing human mGluR2 and Gα16; read-out: Representative FLIPR EC50 Values
Description: Inhibition constants are determined as follows. The compounds of the present invention may be tested in a […] (FLIPR) based assay. This assay is a common functional assay to monitor Ca^2+ mobilization in whole cells expressing recombinant receptor coupled with a promiscuous G-protein. CHO dhfr-cells stably expressing recombinant human mGluR2 and Gα16 loaded with Fluo-4 AM (Invitrogen, Carlsbad Calif.) are treated with dose responses of compounds and the Ca^2+ response is monitored on a FLIPR384 (Molecular Devices, Sunnydale Calif.) for agonist activity. The potentiation response is monitored after a subsequent addition of an EC20 concentration of glutamate (900 nM). The maximum calcium response at each concentration of compound for agonist or potentiation are plotted as dose responses and the curves are fitted with a four parameters logistic equation giving EC50 and Hill coefficient using the iterative non linear curve fitting software program.

T1 sequence (Q14416 19-872): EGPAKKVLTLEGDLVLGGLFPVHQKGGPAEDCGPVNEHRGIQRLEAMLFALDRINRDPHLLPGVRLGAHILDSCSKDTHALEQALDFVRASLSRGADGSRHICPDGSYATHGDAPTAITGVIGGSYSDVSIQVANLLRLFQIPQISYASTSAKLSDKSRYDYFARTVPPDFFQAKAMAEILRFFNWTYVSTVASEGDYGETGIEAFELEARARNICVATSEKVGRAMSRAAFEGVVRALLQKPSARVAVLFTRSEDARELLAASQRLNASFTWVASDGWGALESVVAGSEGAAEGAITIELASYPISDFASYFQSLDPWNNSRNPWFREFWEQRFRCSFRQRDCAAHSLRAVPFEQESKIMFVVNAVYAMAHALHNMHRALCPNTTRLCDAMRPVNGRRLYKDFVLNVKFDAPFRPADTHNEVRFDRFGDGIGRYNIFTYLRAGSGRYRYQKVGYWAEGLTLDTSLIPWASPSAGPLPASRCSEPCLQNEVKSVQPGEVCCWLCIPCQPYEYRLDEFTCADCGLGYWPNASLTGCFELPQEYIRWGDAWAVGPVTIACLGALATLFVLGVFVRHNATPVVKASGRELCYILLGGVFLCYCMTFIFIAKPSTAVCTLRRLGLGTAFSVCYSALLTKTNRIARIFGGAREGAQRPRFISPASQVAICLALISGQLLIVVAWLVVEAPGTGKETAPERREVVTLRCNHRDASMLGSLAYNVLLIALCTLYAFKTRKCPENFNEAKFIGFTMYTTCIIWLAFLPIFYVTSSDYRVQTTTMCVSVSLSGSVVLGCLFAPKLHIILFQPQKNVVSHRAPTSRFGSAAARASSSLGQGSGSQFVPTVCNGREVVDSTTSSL

Molecule	EC50 [µM]
CC(C)(C)c1ccc(OCC2Cn3c(nc4cccnc43)O2)cc1 (racemic) [Example 2-16, (RS)-2-[(4-tert-butylphenoxy)methyl]-2,3-dihydro[1,3]oxazolo[2′,3′:2,3]imidazo[4,5-b]pyridine]	0.261
CC(C)(C)c1ccc(OC[C@@H]2Cn3c(nc4cc(C#N)ccc43)O2)cn1 [Example 1-6, (2S)-2-{[(6-tert-butylpyridin-3-yl)oxy]methyl}-2,3-dihydro[1,3]oxazolo[3,2-a]benzimidazole-7-carbonitrile]	0.028
CC(C)(C)c1cc(OC[C@@H]2Cn3c(nc4cc(C#N)ccc43)O2)ccn1 [Example 1-12, (2S)-2-{[(2-tert-butylpyridin-4-yl)oxy]methyl}-2,3-dihydro[1,3]oxazolo[3,2-a]benzimidazole-7-carbonitrile]	0.206
CC(C)(C)c1ccc(OC[C@@H]2Cn3c(nc4cc(F)c(F)cc43)O2)cn1 [Example 1-17, (2S)-2-{[(6-tert-bulylpyridin-3-yl)oxy]methyl}-6,7-difluoro-2,3-dihydro[1,3]oxazolo[3,2-a]benzimidazole]	0.058
FC(F)(F)c1ccc(OC[C@@H]2Cn3c(nc4ccccc43)O2)cn1 [Example 1-21, (2S)-2-({[6-(trifluoromethyl)yridine-3-yl]oxy}methyl)-2,3-dihydro[1,3]oxazolo[3,2-a]benzimidazole]	0.507
(2S)-2-{[4-(2,2,2-trifluoro-1,1-dimethylethyl)phenoxy]methyl}-2,3-dihydro[1,3]oxazolo[3′,2′:1,2]imidazo[4,5-c]pyridine [Example 2-8]	0.021

— patent publication US20110124661A1, “OXAZOLOBENZIMIDAZOLE DERIVATIVES” (MERCK SHARP & DOHME CORP., priority 2008, published 2011)
